In assay [1] the target is T1, human dopamine D4 receptor (Homo sapiens, UniProt P21917).
T1 construct: purchased BioSignal, Inc. (Montreal, Canada)
The assay is described as follows: Binding affinity at the human dopamine D4 receptor. The following applies: Table 3d; * = >50000; read-out: hD4 Ki. The source says: Other receptors: Cell membranes expressing human dopamine D1, D2, D4 and rat D3 receptors were purchased through BioSignal, Inc. (Montreal, Canada). Binding assays using the histamine H1 receptor; dopamine receptors; and α1A, α1B, and α2 adrenergic receptors may be carried out according to the procedures described in U.S. Pat. No. 5,780,485, the disclosure of which is hereby incorporated by reference in its entirety into this application. Binding assays using the dopamine D5 receptor may be carried out according to the procedures described in U.S. Pat. No. 5,882,855, the disclosure of which is hereby incorporated by reference in its entirety into this application. Binding assays for the human α1D adrenergic receptor may be carried out according to the procedures described in U.S. Pat. No. 6,156,518, the disclosure of which is hereby incorporated by reference in its entirety into this application.

The target in another assay is human MCH1 receptor (Homo sapiens, UniProt Q99705). The format is cell-based. The settings on record: linear regression, r^2=0.94. Further details: expressed in transfected cells; host or cells: COS-7. The protocol:
Guidelines for cell preparation and assay of the second messenger inositol phosphate (IP) are described below for a typical protocol involving transiently transfected Cos-7 cells; For a 96 well microplate format assay, cells are plated at 70,000 cells per well and allowed to incubate for 24 hours after the transfection procedure. The cells are then labeled with 0.5 μCi [^3H]myo-inositol per micro-well over night at 37° C., 5% CO2. Immediately before the assay, the medium is removed and replaced with 90 μl PBS containing 10 mM LiCl. The plates are then incubated for 15 minutes at 37° C., […]. Following the incubation, the transfectants are challenged with agonist (10 μl/well; 10× concentration) for 30 minutes at 37° C., 5% CO2. The challenge is terminated and the cells lysed by the addition of 100 μl cold 5% v/v trichloroacetic acid (TCA), followed by an incubation at 4° C. for greater than 30 minutes. Total IPs are isolated from the lysate by ion exchange chromatography. Briefly, the lysed contents of the wells are transferred to a Multiscreen HV filter plate (Millipore) containing 100 μl Dowex AG1-X8 suspension (50% v/v, water:resin) (200-400 mesh, formate form). The filter plates are placed on a vacuum manifold to wash and elute the resin bed. Each well is first washed 2 times with 200 μl 5 mM myoinositol. Total [^3H]IPs are eluted with 75 μl of 1.2 M ammonium formate/0.1 M formic acid into Wallac 96-well plates. 200 μl of SuperMix scintillation cocktail is added to each well, mixed well, allowed to equilibrate and counted on a Micro Beta Trilux scintillation counter. (Note: The assay may be scaled to a 24 well format by simple adjustment of reagent volumes and employing individual chromatographic columns.)
The expression vector (pEXJ) containing the MCH1 cDNA was transfected by electroporation into Cos-7 cells in combination with an expression vector (pEXJ) containing the Gα16 subunit.

Assay [2] has as its system micturition reflex, anesthetized female Sprague Dawley rats. The assay is described as follows: Distension-induced rhythmic contraction (DIRC) model. More on the design: key: A = Produced a significant increase in contraction interval relative to pre-drug interval. The settings on record: contraction interval, i.v. or i.p. The format is in vivo, rat. The procedure:
The effects of compounds on the micturition reflex were assessed in the “distension-induced rhythmic contraction” (DIRC), as described in previous publications (e.g. Maggi et al, 1987; Morikawa et al, 1992), and Continuous Slow Transvesicular Infusion (CSTI) models in rats.
Female Sprague Dawley rats weighing approximately 300 g were anesthetized with subcutaneous urethane (1.2 g/kg). The trachea was cannulated with PE240 tubing to provide a clear airway throughout the experiment. A midline abdominal incision was made and the left and right ureters were isolated. The ureters were ligated distally (to prevent escape of fluids from the bladder) and cannulated proximally with PE10 tubing. The incision was closed using 4-0 silk sutures, leaving the PE10 lines routed to the exterior for the elimination of urine. The bladder was canulated via the transurethral route using PE50 tubing inserted 2.5 cm beyond the urethral opening. This cannula was secured to the tail using tape and connected to a pressure transducer. To prevent leakage from the bladder, the cannula was tied tightly to the exterior urethral opening using 4-0 silk.
To initiate the micturition reflex, the bladder was first emptied by applying pressure to the lower abdomen, and then filled with normal saline in […] (maximum 2 ml) until spontaneous bladder contractions occurred (typically 20-40 mmHg at a rate of one contraction every 2 to 3 minutes. Once a regular rhythm was established, vehicle (saline) or Test Compounds were administered i.v. or i.p. to explore their effects on bladder activity. The 5-HT1A antagonist WAY-100635 was given as a positive control. Data were expressed as contraction interval (in seconds) before drug application (basal), or after the application of vehicle or test article.

Assay [3] relates to micturition reflex, conscious male Sprague Dawley rats. In words: Continuous Slow Transvesicular Infusion (CSTI) rat model. The format is in vivo. Further details: key to Effect of MCH1 antagonist in the CSTI model: B = Produced an increase in bladder capacity in rats relative to baseline capacity.

Chain of human MCH1 receptor (Q99705 whole entry): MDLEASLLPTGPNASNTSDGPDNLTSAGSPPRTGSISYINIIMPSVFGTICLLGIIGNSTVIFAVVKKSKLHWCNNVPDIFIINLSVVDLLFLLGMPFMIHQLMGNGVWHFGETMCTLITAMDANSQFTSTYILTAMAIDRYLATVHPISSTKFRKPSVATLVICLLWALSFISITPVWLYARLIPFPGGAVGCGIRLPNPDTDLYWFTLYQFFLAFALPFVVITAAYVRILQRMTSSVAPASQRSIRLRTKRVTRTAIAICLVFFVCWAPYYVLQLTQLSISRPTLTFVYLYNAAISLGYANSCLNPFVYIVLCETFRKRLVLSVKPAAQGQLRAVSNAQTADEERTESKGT
T1 sequence (P21917 whole entry): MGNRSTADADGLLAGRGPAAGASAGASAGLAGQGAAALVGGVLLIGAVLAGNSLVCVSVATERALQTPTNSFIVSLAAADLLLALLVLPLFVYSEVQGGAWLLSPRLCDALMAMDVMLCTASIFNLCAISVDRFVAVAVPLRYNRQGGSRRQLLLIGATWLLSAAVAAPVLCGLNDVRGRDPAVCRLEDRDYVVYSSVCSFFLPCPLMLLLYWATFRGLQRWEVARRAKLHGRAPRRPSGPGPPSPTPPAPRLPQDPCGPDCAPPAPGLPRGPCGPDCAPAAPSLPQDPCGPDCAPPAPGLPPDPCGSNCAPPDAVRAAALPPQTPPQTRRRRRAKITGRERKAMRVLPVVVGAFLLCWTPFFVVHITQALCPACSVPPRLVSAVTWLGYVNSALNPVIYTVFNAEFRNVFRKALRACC

One may read the Ki as a dissociation constant, usually derived from enzyme kinetics or from competition with a known ligand. With `COCC1=C(C(=O)OC)[C@H](c2ccc(F)c(F)c2)N(C(=O)NCCCN2CCC(c3cccc(NC(C)=O)c3)CC2)C(=O)N1` [Example 10, (+)-1,2,3,6-TETRAHYDRO-1-{N-[4-(3,-ACETAMIDO)-PHENYLPIPERIDIN-1-YL]PROPYL}CARBOXAMIDO-4-METHOXYMETHYL-6-(3,4-DIFLUORO-PHENYL)-2-OXOPYRIMIDINE-5-CARBOXYLIC ACID METHYL ESTER], the inhibitory constant (Ki) in assay [1] was > 50 µM. The “slope of the Schild plot” value at human MCH1 receptor is on record as 0.97±0.2. In addition, the “Effect of MCH1 antagonist in the DIRC model” value in assay [2] is listed as “A”. Besides, the “bladder capacity (% basal)” value in assay [3] (0.03 mg/kg, p.o., n=6 each, p<0.05) is listed as “Significantly different from corresponding vehicle control”. The “Effect of MCH1 antagonist in the CSTI model” value in assay [3] (bladder capacity, intragastric) is “B”.

(Values after US20040038855A1 (priority 1999, published 2004).)
